Results as given in patent publication US6348468B1, “Pyridazine compounds and compositions containing the same” (Kowa Co., Ltd., priority 1997, dated 2002).

Tests used:
[1] = test system: IL-6 Production; experiment: Inhibitory activity against IL-6 production (LPS-stimulated RAW 264.7 cells, ELISA); assay type: cell-based; conditions: Mus musculus, RAW264.7, lipopolysaccharide, culturing for 20 hours
Method: RAW 264.7 cells, which had been cultured until confluence on DMEM culture with 10% fetal bovine serum (FBS) added thereto, were diluted to 1×10^6 cells/ml with the same medium, and were then inoculated at 100 μl/well to a 96-well plate. A test sample which had been diluted with the same medium and lipopolysaccharide of 4 μg/ml in concentration was added at 50 μl/well, respectively. Subsequent to culturing for 20 hours, the cultures were collected.
The amount of IL-6 in each of the thus-obtained cultures of RAW 264.7 cells was measured by ELISA, and 5 the inhibitory activity against IL-6 production was determined with reference to a standard curve of IL-6.

[2] = test system: TNF-α Production; experiment: Inhibitory activity against TNF-α production (LPS-stimulated RAW 264.7 cells, L-929 cytotoxicity readout); assay type: cell-based; conditions: Mus musculus, RAW264.7, lipopolysaccharide, culturing for 20 hours
Method: RAW 264.7 cells were cultured until confluence on DMEM culture with 10% fetal bovine serum (FBS), and were diluted to 1×10^6 cells/ml with the same medium and then inoculated at 100 μl/well to a 96-well plate. To the cells, a test sample which had been diluted with the same medium and lipopolysaccharide of 4 μg/ml was added at 50 μl/well, respectively. Subsequent to culturing for 20 hours, the cultures were collected.
Making use of cytotoxicity to L-929 cell strain, a TNF-α sensitive cell strain, the amount of TNF-α in each of the cultures was measured as will be described next. Described specifically, L-929 cells which had been cultured on MEM medium with 10% FBS added thereto were diluted to 2×10^5 cells/ml with the same medium, and were then inoculated at 100 μl/well to a 96-well plate. Subsequent to overnight incubation, standard TNF-α solutions, or 100-fold, 200-fold and 500-fold dilute solutions of the above-described culture of RAW 264.7 cells were added at 50 μl/well, and actinomycin D (4 μg/ml) was also added at 50 μl/well, followed by further culturing for 20 hours. Twenty hours later, each well was washed with PBS, viable cells were stained with crystal violet, and the inhibitory activity against TNF-α production was determined with reference to a standard curve of TNF-α.

[3] = test system: Interleukin-1β (IL-1β) Production; experiment: Inhibitory activity against interleukin-1β production (LPS-stimulated HL-60 cells, ELISA); assay type: cell-based; conditions: Homo sapiens, 72 h, lipopolysaccharide 10 μg/ml, culturing for 3 days
Method: HL-60 cells were cultured for 4 days until confluence on RPMI 1640 medium with 10% fetal bovine serum (FBS) added thereto. The HL-60 cells were centrifuged. The supernatant was discarded, and the cells were then suspended at 1×10^6 cells/ml on RPMI 1640 medium with 3% FBS, and lipopolysaccharide was added to give a final concentration of 10 μg/ml. The culture was inoculated at 1 ml/well to a 24-well plate. A test sample was added at 1 μl/well, followed by culturing for 3 days. Three days later, the amount of interleukin-1β in each of the cultures was measured by ELISA. Its IC50 value was determined by a comparison in yield with a control to which no test sample was added.

[4] = test system: collagen-induced arthritis models of mice; experiment: Therapeutic effects for arthritis in collagen-induced arthritis models of mice; assay type: in vivo; conditions: P.O.; for Percent inhibition to swelling: determined by quantitation of swelling; for Percent inhibition to arthritis development: determined depending on the existence or non-existence of swelling
Method: In accordance with the disclosure of Nature 283, 666-668, 1980, therapeutic effects for arthritis were evaluated by using collagen-induced arthritis models of mice.

[5] = test system: rats; experiment: Maximum no-effect level, oral once a day for 2 weeks, rats; assay type: in vivo; conditions: orally once a day for 2 weeks
[6] = test system: dogs; experiment: Maximum no-effect level, oral once a day for 2 weeks, dogs; assay type: in vivo; conditions: orally once a day for 2 weeks

IC50 [3] [nM]	Structure (SMILES)	further results
150	COc1ccc(-c2cc(=S)n(Cc3ccc(F)cc3F)nc2-c2ccc(OC)cc2)cc1 [Example 126, 5,6-bis(4-methoxyphenyl)-2-(2,4-difluorobenzyl)-2H-pyridazine-3-thione]	
310	COc1ccc(-c2cc(=S)n(Cc3cccnc3)nc2-c2ccc(OC)cc2)cc1 [Example 128, 5,6-bis(4-methoxyphenyl)-2-(3-pyridylmethyl)-2H-pyridazine-3-thione]	
200	CSc1ccc(-c2nn(Cc3ccc(Cl)cc3Cl)c(=S)cc2-c2ccc(Cl)cc2)cc1 [Example 134, 5-(4-chlorophenyl)-2-(2,4-dichlorobenzyl)-6-[4-(methylthio)phenyl]-2H-pyridazine-3-thione]	melting point: 183.2 to 183.4 °C
390	CSc1ccc(-c2nn(Cc3cccnc3)c(=S)cc2-c2ccc(Cl)cc2)cc1 [Example 135, 5-(4-chlorophenyl)-6-[4-(methylthio)phenyl]-2-(3-pyridylmethyl)-2H-pyridazine-3-thione]	
270	CSc1ccc(-c2nn(CC3CC3)c(=S)cc2-c2ccc(F)cc2)cc1 [Example 137, 2-cyclopropylmethyl-5-(4-fluorophenyl)-6-[4-(methylthio)phenyl]-2H-pyridazine-3-thione]	melting point: 135.7 to 135.8 °C
180	COc1ccc(-c2nn(Cc3ccc(Cl)cc3)c(=S)cc2-c2ccncc2)cc1 [Example 142, 2-(4-chlorobenzyl)-6-(4-methoxyphenyl)-5-(4-pyridyl)-2H-pyridazine-3-thione]	
490	CCn1nc(-c2ccc(OC)c(F)c2)c(-c2ccc(OC)c(F)c2)cc1=O [Example 160, 5,6-bis(3-fluoro-4-methoxyphenyl)-2-ethyl-2H-pyridazin-3-one]	melting point: 177.8 to 178.5 °C
610	CCn1nc(-c2ccc(OC)cc2)c(-c2ccc(OC)cc2)cc1=O [Example 163, 5,6-bis(4-methoxyphenyl)-2-ethyl-2H-pyridazin-3-one]	IC50 [1]: 400 nM; IC50 [2]: 1200 nM
1130	COc1ccc(-c2cc(=O)n(C)nc2-c2ccc(OC)cc2)cc1 [Example 164, 5,6-bis(4-methoxyphenyl)-2-methyl-2H-pyridazin-3-one]	
1320	COc1ccc(-c2cc(=O)n(C(C)C)nc2-c2ccc(OC)cc2)cc1 [Example 165, 5,6-bis(4-methoxyphenyl)-2-isopropyl-2H-pyridazin-3-one]	
7980	COc1ccc(-c2cc(=O)n(C3CC3)nc2-c2ccc(OC)cc2)cc1 [Example 168, 5,6-bis(4-methoxyphenyl)-2-cyclopropyl-2H-pyridazin-3-one]	
1800	COc1ccc(-c2cc(=O)n(CC3CC3)nc2-c2ccc(OC)cc2)cc1 [Example 169, 5,6-bis(4-methoxyphenyl)-2-cyclopropylmethyl-2H-pyridazin-3-one]	
1190	COc1ccc(-c2cc(=S)n(CC3CC3)nc2-c2ccc(OC)cc2)cc1 [Example 170, 5,6-bis(4-methoxyphenyl)-2-cyclopropylmethyl-2H-pyridazine-3-thione]	
510	COc1ccc(-c2cc(=O)n(C3CCCC3)nc2-c2ccc(OC)cc2)cc1 [Example 171, 5,6-bis(4-methoxyphenyl)-2-cyclopentyl-2H-pyridazin-3-one]	melting point: 141.2 to 142.2 °C
110	COc1ccc(-c2cc(=O)n(CC3CCCC3)nc2-c2ccc(OC)cc2)cc1 [Example 172, 5,6-bis(4-methoxyphenyl)-2-cyclopentylmethyl-2H-pyridazin-3-one]	

Second part, the molecule before the results:

Structure (SMILES)	IC50 [3] [nM]	further results
COc1ccc(-c2cc(=O)n(CCCl)nc2-c2ccc(OC)cc2)cc1 [Comp. Comp'd 1]	29000	IC50 [1]: 65000 nM; IC50 [2]: 10000 nM
COc1ccc(-c2cc(=O)n(CCO)nc2-c2ccc(OC)cc2)cc1 [Comp. Comp'd 2]	46000	IC50 [1]: 44000 nM; IC50 [2]: 26000 nM
COc1ccc(-c2cc(=O)n(Cc3ccc(OC)c(F)c3)nc2-c2ccc(OC)cc2)cc1 [Example 28, 5,6-bis(4-methoxyphenyl)-2-(3-fluoro-4-methoxybenzyl)-2H-pyridazin-3-one]	290	
COc1ccc(-c2cc(=O)n(CC=Cc3ccc(F)cc3)nc2-c2ccc(OC)cc2)cc1 [Example 30, 5,6-bis(4-methoxyphenyl)-2-(4-fluorocinnamyl)-2H-pyridazin-3-one]	170	
COc1ccc(-c2cc(=O)n(CC=Cc3ccc(F)cc3F)nc2-c2ccc(OC)cc2)cc1 [Example 31, 5,6-bis(4-methoxyphenyl)-2-(2,4-difluorocinnamyl)-2H-pyridazin-3-one]	95	
COc1ccc(-c2cc(=O)n(Cc3ccc(Cl)c(Cl)c3)nc2-c2ccc(OC)cc2)cc1 [Example 35, 5,6-bis(4-methoxyphenyl)-2-(3,4-dichlorobenzyl)-2H-pyridazin-3-one]	210	
COc1ccc(-c2cc(=O)n(CC=Cc3ccc(Cl)cc3Cl)nc2-c2ccc(OC)cc2)cc1 [Example 40, 5,6-bis(4-methoxyphenyl)-2-(2,4-dichlorocinnamyl)-2H-pyridazin-3-one]	270	
COc1ccc(-c2cc(=O)n(Cc3cccnc3)nc2-c2ccc(OC)cc2)cc1 [Example 44, 5,6-bis(4-methoxyphenyl)-2-(3-pyridylmethyl)-2H-pyridazin-3-one]	430	melting point: 167.4 to 168.4 °C
CSc1ccc(-c2nn(Cc3ccccc3)c(=O)cc2-c2ccc(Cl)cc2)cc1 [Example 51, 2-benzyl-5-(4-chlorophenyl)-6-[4-(methylthio)phenyl]-2H-pyridazin-3-one]	290	Percent inhibition to swelling ([4]; 1 mg/kg): 33.3%; Percent inhibition to arthritis development ([4]; 1 mg/kg): 40%; Percent inhibition to swelling ([4]; 3 mg/kg): 77.4%; Percent inhibition to arthritis development ([4]; 3 mg/kg): 50%; Maximum no-effect level (rat) [5]: 100 mg/kg; toxicity at the dose level of Table 4 (in words) [5]: no toxicity was observed at all; Maximum no-effect level (dog) [6]: 30 mg/kg; toxicity at the dose level of Table 4 (in words) [6]: no toxicity was observed at all
CSc1ccc(-c2nn(Cc3cccnc3)c(=O)cc2-c2ccc(Cl)cc2)cc1 [Example 55, 5-(4-chlorophenyl)-6-[4-(methylthio)phenyl]-2-(3-pyridylmethyl)-2H-pyridazin-3-one]	250	
CSc1ccc(-c2nn(Cc3ccccc3)c(=O)cc2-c2ccc(F)cc2)cc1 [Example 61, 5-(4-fluorophenyl)-6-[4-(methylthio)phenyl]-2-benzyl-2H-pyridazin-3-one]	210	melting point: 140.6 to 140.7 °C
CSc1ccc(-c2nn(Cc3ccc(Cl)cc3Cl)c(=O)cc2-c2ccc(F)cc2)cc1 [Example 65, 5-(4-fluorophenyl)-6-[4-(methylthio)phenyl]-2-(2,4-dichlorobenzyl)-2H-pyridazin-3-one]	390	melting point: 139.3 to 139.5 °C
COc1ccc(-c2nn(Cc3ccc(Cl)cc3)c(=O)cc2-c2ccncc2)cc1 [Example 78, 2-(4-chlorobenzyl)-6-(4-methoxyphenyl)-5-(4-pyridyl)-2H-pyridazin-3-one]	390	
COc1ccc(-c2cc(=S)n(Cc3ccccc3)nc2-c2ccc(OC)cc2)cc1 [Example 123, 5,6-bis(4-methoxyphenyl)-2-benzyl-2H-pyridazine-3-thione]	190	melting point: 134.7 to 148.6 °C
